Non-standard residues stand in square brackets, D forms with d. Residues, ends and D or L forms follow the SMILES beside them. No end group written: not given here. ξ: configuration not given here. Tyr(3-NO2) = N[C@@H](Cc1ccc(O)c([N+](=O)[O-])c1)C(=O)O; fluorescein = fluorescein attached to the C-terminus; Arg(Me2a) = CN(C)C(=N)NCCC[C@H](N)C(=O)O; Phe(4-NH2) = Nc1ccc(C[C@H](N)C(=O)O)cc1; His(τ-Me) = Cn1cnc(C[C@H](N)C(=O)O)c1; His(π-Me) = Cn1cncc1C[C@H](N)C(=O)O; 4Pal = N[C@@H](Cc1ccncc1)C(=O)O; 2Thi = N[C@@H](Cc1cccs1)C(=O)O; Ile(3ξ) = CCC(C)[C@H](N)C(=O)O
Legend:
Type in all cases: binding
GST-Ubr-box of Ubr1 = GST-Ubr-box of Ubr1 (Homo sapiens (Human), UniProt Q8IWV7); assay: Competition fluorescence polarization (FP) assay, GST-Ubr-box of Ubr1; conditions: [GST-UBR1]=2 μM, tracer 9 nM, read-out: UBR1 Affinity Ki FP
Sequence of GST-Ubr-box of Ubr1 (Q8IWV7 other isoform, or with tags, fused parts or gaps): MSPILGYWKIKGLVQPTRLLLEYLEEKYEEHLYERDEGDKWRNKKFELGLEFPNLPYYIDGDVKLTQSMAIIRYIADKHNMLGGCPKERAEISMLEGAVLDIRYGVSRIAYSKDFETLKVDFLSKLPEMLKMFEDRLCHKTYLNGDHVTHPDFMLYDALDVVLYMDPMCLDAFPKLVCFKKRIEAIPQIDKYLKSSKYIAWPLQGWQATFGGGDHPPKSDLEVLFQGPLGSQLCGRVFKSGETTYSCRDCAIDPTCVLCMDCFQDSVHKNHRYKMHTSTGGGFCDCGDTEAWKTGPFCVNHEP
Source text: (§1) Fluorescence Polarization (FP) assays were used to determine binding affinity of the peptidomimetic compounds for the Ubr box (FIGS. 4A-B). FIG. 1A depicts the mechanism of action of peptidomimetic compounds that include a linker. […] Binding affinities as determined by Structure Activity Relationship Studies (SARs) of additional peptidomimetic compounds to GST-Ubr-box of Ubr 1 and Ubr2 are shown in Table 1.
(§2) The FP assay uses a tetrapeptide with a sequence arginine-isoleucine-phenylalanine-serine (RIFS) with fluorescein attached to the C-terminus as tracer that was previously shown to bind to the Ubr-boxes of Ubr1 and Ubr2 with similar binding affinity. Assays were developed in 384-well plates, which were read on a Clariostar Reader. Signal-to-background ratio (S/B) was optimized by varying concentrations of GST-Ubr-box and tracer concentrations. GST-fusion proteins were used due to its larger size than Ubr-box alone to increase the FP effect. […] The optimized condition includes receptor concentration [GST-UBR1]=2 μM, tracer concentration [tracer]=9 nM, and the highest concentration of unlabeled peptidomimetic compound competitors at 200 μM with 3× serial dilutions.
(§3) Preliminary ITC measurements confirmed the FP measurements (FIG. 4C).

GST-Ubr-box of Ubr2 = GST-Ubr-box of Ubr2 (Homo sapiens (Human), UniProt Q8IWV8); assay: Competition fluorescence polarization (FP) assay, GST-Ubr-box of Ubr2; conditions: read-out: UBR2 Affinity Ki FP
Sequence of GST-Ubr-box of Ubr2 (Q8IWV8 other isoform, or with tags, fused parts or gaps): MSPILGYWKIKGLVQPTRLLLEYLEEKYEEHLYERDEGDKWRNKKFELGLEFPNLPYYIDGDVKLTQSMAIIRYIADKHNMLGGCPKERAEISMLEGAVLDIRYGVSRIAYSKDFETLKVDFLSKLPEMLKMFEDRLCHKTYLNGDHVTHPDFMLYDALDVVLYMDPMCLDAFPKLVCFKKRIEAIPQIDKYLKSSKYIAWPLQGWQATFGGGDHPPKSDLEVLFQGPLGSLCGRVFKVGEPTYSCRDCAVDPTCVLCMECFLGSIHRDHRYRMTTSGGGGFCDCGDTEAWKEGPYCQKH
Source text: as §1, §2, §3

Ubr-box of Ubr1 = Ubr-box of Ubr1 (Homo sapiens (Human), UniProt Q8IWV7); assay: FP titration of GST-Ubr-box into tracer, Ubr1; conditions: 9 nM tracer
Sequence of Ubr-box of Ubr1 (Q8IWV7 other isoform, or with tags, fused parts or gaps): as the sequence (Q8IWV7 other isoform, or with tags, fused parts or gaps) above
Source text: as §2, §3

Ubr-box of Ubr2 = Ubr-box of Ubr2 (Homo sapiens (Human), UniProt Q8IWV8); assay: FP titration of GST-Ubr-box into tracer, Ubr2; conditions: 9 nM tracer
Sequence of Ubr-box of Ubr2 (Q8IWV8 other isoform, or with tags, fused parts or gaps): as the sequence (Q8IWV8 other isoform, or with tags, fused parts or gaps) above
Source text: as §2, §3

| Compound | Ki (GST-Ubr-box of Ubr1) | Ki (GST-Ubr-box of Ubr2) | binding of tracer to Ubr-box of Ubr1 (Ubr-box of Ubr1) | binding of tracer to Ubr-box of Ubr2 (Ubr-box of Ubr2) |
| --- | --- | --- | --- | --- |
| CN(C)C(=N)NCCC[C@H](N)C(=O)N1CCC[C@H]1C(=O)N[C@@H](Cc1ccccc1)C(N)=O [Compound 31] (H-[Arg(Me2a)]-Pro-Phe-NH2) | > 100 µM | > 100 µM |  |  |
| tracer: tetrapeptide arginine-isoleucine-phenylalanine-serine (RIFS) with fluorescein attached to the C-terminus as tracer (RIFS-fluorescein) |  |  | can bind | can bind |
| CC[C@H](C)[C@H](NC(=O)[C@@H](N)Cc1cccs1)C(=O)N[C@@H](Cc1ccccc1)C(N)=O [Compound 21] (H-[2Thi]-Ile-Phe-NH2) | > 100 µM | > 100 µM |  |  |
| CC[C@H](C)[C@H](NC(=O)[C@@H](N)CCCN(C)C(=N)NC)C(=O)N[C@@H](Cc1ccccc1)C(N)=O [Compound 6] | > 100 µM | > 100 µM |  |  |
| CC[C@H](C)[C@H](NC(=O)[C@@H](N)CCONC(=N)N)C(=O)N[C@@H](Cc1ccccc1)C(N)=O [Compound 3] | 10 to 100 µM | 10 to 100 µM |  |  |
| CCC(C)[C@H](NC(=O)[C@@H](N)Cc1ccc(NC(C)=O)cc1)C(=O)N[C@@H](Cc1ccccc1)C(N)=O (stereo partly drawn) [Compound 24] (H-[Phe(4-NH2)](Ac)-[Ile(3ξ)]-Phe-NH2) | 10 to 100 µM | 10 to 100 µM |  |  |
| CN(C)C(=N)NCCC[C@H](N)C(=O)N[C@@H](Cc1cscn1)C(=O)N[C@@H](Cc1ccccc1)C(N)=O [Compound 29] | 1 to 10 µM | 1 to 10 µM |  |  |
| CCNC(=N)N(CC)CCC[C@H](N)C(=O)N[C@H](C(=O)N[C@@H](Cc1ccccc1)C(N)=O)[C@@H](C)CC [Compound 9] | 10 to 100 µM | 10 to 100 µM |  |  |
| N=C(N)NCCC[C@H](N)C(=O)N[C@@H](Cc1ccc(O)c(Cl)c1)C(=O)N[C@@H](Cc1ccccc1)C(N)=O [Compound 25] | 1 to 10 µM | 10 to 100 µM |  |  |
| CC[C@H](C)[C@H](NC(=O)[C@@H](N)Cc1cn(C)cn1)C(=O)N[C@@H](Cc1ccccc1)C(N)=O [Compound 13] (H-[His(τ-Me)]-Ile-Phe-NH2) | > 100 µM | > 100 µM |  |  |
| CCC(C)C(NC(=O)[C@@H](N)CCCNC(=N)N)C(=O)N[C@@H](Cc1ccccc1)C(N)=O (stereo partly drawn) [Compound 27] | 1 to 10 µM | 1 to 10 µM |  |  |
| N=C(N)NCCC[C@H](N)C(=O)N[C@@H](Cc1ccc(O)c([N+](=O)[O-])c1)C(=O)N[C@@H](Cc1ccccc1)C(N)=O [Compound 1] | 1 to 10 µM | 1 to 10 µM |  |  |
| CN(C)C(=N)NCCC[C@H](N)C(=O)N[C@@H](Cc1ccc(O)c([N+](=O)[O-])c1)C(=O)N[C@@H](Cc1ccccc1)C(N)=O [Compound 19] (H-[Arg(Me2a)]-[Tyr(3-NO2)]-Phe-NH2) | < 1 µM | < 1 µM |  |  |
| CC[C@H](C)[C@H](NC(=O)[C@@H](N)Cc1cncn1C)C(=O)N[C@@H](Cc1ccccc1)C(N)=O [Compound 10] (H-[His(π-Me)]-Ile-Phe-NH2) | > 100 µM | > 100 µM |  |  |
| CC[C@H](C)[C@H](NC(=O)[C@@H](N)Cc1ccc(NC(N)=O)cc1)C(=O)N[C@@H](Cc1ccccc1)C(N)=O [Compound 5] | > 100 µM | 10 to 100 µM |  |  |
| NC(=O)[C@H](Cc1ccccc1)NC(=O)[C@@H](N)Cc1ccc(O)c([N+](=O)[O-])c1 [Compound 18] (H-[Tyr(3-NO2)]-Phe-NH2) | > 100 µM | > 100 µM |  |  |
| CC[C@H](C)[C@H](NC(=O)[C@H](Cc1ccccc1)NC(=O)[C@@H](N)Cc1ccncc1)C(N)=O [Compound 22] (H-[4Pal]-Phe-Ile-NH2) | > 100 µM | > 100 µM |  |  |
| CC(C[C@H](NC(=O)[C@@H](N)CCCNC(=N)N)C(=O)N[C@@H](Cc1ccccc1)C(N)=O)C(F)(F)F (stereo partly drawn) [Compound 26] | < 1 µM | < 1 µM |  |  |

From patent US20250186562A1, “TARGET SUBSTRATE PROTEIN DEGRADATION PLATFORM” (The Regents of the University of California, priority 2022, published 2025)
